Data published in patent US6514997B2, “Antipicornaviral compounds and compositions, their pharmaceutical uses, and materials for their synthesis” (Agouron Pharmaceuticals, Inc., priority 1999, dated 2003).
Where two headings read alike, the source gives them in different places. Values belong to the compound of their own block, whether it stands above or below them.

How the values were obtained:
HRV-14 = test: Antirhinoviral H1-HeLa cell culture assay (XTT cell protection, EC50), HRV-14; format: cell-based, human rhinovirus (HRV) serotype-14 in H1-HeLa cells; conditions: Rhinovirus B, HRV14, H1-HeLa
Summary of the method: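 XTT dye reduction (450/650 nm) measured survival of H1-HeLa cells two days after HRV-14 infection at m.o.i. 0.13 in the presence of compound, giving EC50. The therapeutic index is CC50 divided by EC50.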

H1-HeLa cells = test: Cytotoxicity (CC50) in mock-infected H1-HeLa cells, XTT dye reduction; format: cell-based, human
Summary of the method: (§1)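 XTT dye reduction (formazan, 450/650 nm) in H1-HeLa cells, mock-infected, gave CC50.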

[1] = as above; format: cell-based, human; conditions: human, H1-HeLa cells, mock-infected
Summary of the method: as §1

[2] = test system: strains of human rhinovirus (HRV); test: Antirhinoviral H1-HeLa cell culture assay (XTT cell protection, EC50), other HRV strains; format: cell-based, human rhinovirus in H1-HeLa cells; conditions: read-out: EC50
Summary of the method: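 Protection of H1-HeLa cells from rhinovirus was scored two days post-infection via XTT dye reduction read at 450/650 nm, alongside mock-infected cells for toxicity. CC50/EC50 gives the therapeutic index.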

[3] = biological target: T1, Recombinant rhinovirus 3C protease, serotype 14 (Human rhinovirus 14, UniProt P03303); test: Inhibition of rhinovirus 3C protease (FRET assay, kobs/[I]), serotype 14; format: biochemical; conditions: pH 7.6, read-out: kobs/[I] (3C protease inhibition activity)
T1 construct: Recombinant rhinovirus 3C proteases; made in house
Summary of the method: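 kobs/[I] values came from progress curves of reactions started by adding 50-100 nM protease to buffer (50 mM tris pH 7.6, 1 mM EDTA, 2% DMSO) containing compound and ~1 μM quenched DABCYL-EDANS substrate. Rising EDANS fluorescence reported cleavage.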

[4] = Human rhinovirus sp., HRV3, H1-HeLa, HRV-3
[5] = Human rhinovirus sp., HRV9, H1-HeLa, HRV-9
[6] = Human rhinovirus sp., HRV13, H1-HeLa, HRV-13
[7] = Human rhinovirus sp., HRV16, H1-HeLa, HRV-16
[8] = Human rhinovirus sp., HRV25, H1-HeLa, HRV-25
[9] = Human rhinovirus sp., HRV39, H1-HeLa, HRV-39
[10] = Human rhinovirus sp., HRV78, H1-HeLa, HRV-78
[11] = Human rhinovirus sp., HRV87, H1-HeLa, HRV-87
[12] = Human rhinovirus sp., HRV10, H1-HeLa, HRV-10

T1 sequence (P03303 1538-1719): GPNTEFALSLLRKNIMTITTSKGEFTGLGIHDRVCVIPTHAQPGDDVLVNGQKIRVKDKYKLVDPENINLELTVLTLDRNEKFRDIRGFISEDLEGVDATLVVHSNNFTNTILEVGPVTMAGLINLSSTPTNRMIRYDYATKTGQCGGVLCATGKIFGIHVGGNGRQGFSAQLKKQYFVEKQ

Structure (SMILES): C#CC[C@@H](C(=O)N[C@H](/C=C/C(=O)OC1CCCC1)C[C@@H]1CCNC1=O)n1cccc(NC(=O)c2cc(C)on2)c1=O [Compound 40, trans-(2′S,3′″″S,4S)-4-[2′-(3″-{[1′″-(5″″-Methylisoxazol-3″″-yl)methanoyl]amino}-2′″-oxo-2′″H-pyridin-1′″-yl)pent-4″-ynoylamino]-5-(2′″″-oxopyrrolidin-3′″″-yl)pent-2-enoic Acid Cyclopentyl Ester]
- EC50 (HRV-14): 27 nM
- CC50 (H1-HeLa cells; line of HRV-2): > 10000 nM
- CC50 (H1-HeLa cells; line of HRV-3): > 10000 nM
- CC50 (H1-HeLa cells; line of HRV-9): > 10000 nM
- CC50 (H1-HeLa cells; line of HRV-11): > 10000 nM
- CC50 (H1-HeLa cells; line of HRV-13): > 10000 nM
- CC50 (H1-HeLa cells; line of HRV-16): > 10000 nM
- CC50 (H1-HeLa cells; line of HRV-19): > 10000 nM
- CC50 (H1-HeLa cells; line of HRV-23): > 10000 nM
- CC50 (H1-HeLa cells; line of HRV-25): > 10000 nM
- CC50 (H1-HeLa cells; line of HRV-39): > 10000 nM
- CC50 (H1-HeLa cells; line of HRV-78): > 10000 nM
- CC50 (H1-HeLa cells; line of HRV-87): > 10000 nM
- CC50 (H1-HeLa cells; line of HRV-Hanks): > 10000 nM
- CC50 at 2 days ([1]; line of HRV-14): > 10000 nM
- EC50 ([2]; H1-HeLa, HRV-2): 52 nM
- EC50 ([2]; H1-HeLa, HRV-23): 55 nM
- EC50 ([2]; Human rhinovirus sp., H1-HeLa, HRV-Hanks): 115 nM
- EC50 [2, 4]: 56 nM
- EC50 [2, 5]: 219 nM
- EC50 ([2]; Human rhinovirus sp., HRV11, H1-HeLa, HRV-11): 6 nM
- EC50 [2, 6]: 148 nM
- EC50 [2, 7]: 177 nM
- EC50 ([2]; Human rhinovirus sp., HRV19, H1-HeLa, HRV-19): 60 nM
- EC50 [2, 8]: 490 nM
- EC50 [2, 9]: 163 nM
- EC50 [2, 10]: 123 nM
- EC50 [2, 11]: 83 nM
- kinact/KI ([3]; HRV-14): 186000 M⁻¹ s⁻¹

Structure (SMILES): C#CC[C@@H](C(=O)N[C@H](/C=C/C(=O)OC1CCCCC1)C[C@@H]1CCNC1=O)n1cccc(NC(=O)c2cc(C)on2)c1=O [Compound 55, trans-(2′S,3′″″S,4S)-4-[2′-(3″-{[1′″-(5″″-Methylisoxazol-3″″-yl)methanoyl]amino}-2′″-oxo-2′″H-pyridin-1′″-yl)pent-4″-ynoylamino]-5-(2′″″-oxopyrrolidin-3′″″-yl)pent-2-enoic Acid Cyclohexyl Ester]
- EC50 (HRV-14): 173 nM
- CC50 (H1-HeLa cells; HRV-1A): > 10000 nM
- CC50 (H1-HeLa cells; HRV-9): > 10000 nM
- CC50 (H1-HeLa cells; HRV-10): > 10000 nM
- CC50 (H1-HeLa cells; HRV-25): > 10000 nM
- CC50 at 2 days ([1]; HRV-14): > 10000 nM
- EC50 ([2]; H1-HeLa, HRV-1A): 520 nM
- EC50 [2, 5]: 531 nM
- EC50 [2, 12]: 195 nM
- EC50 [2, 8]: 515 nM
- kinact/KI ([3]; HRV-14 3C protease): 34000 M⁻¹ s⁻¹

Structure (SMILES): CC[C@@H](C(=O)N[C@H](/C=C/C(=O)OC1CCCC1)C[C@@H]1CCNC1=O)n1cccc(NC(=O)c2cc(Cl)on2)c1=O [Compound 29, trans-(2′S,3″″S,4S)-4-(2′-{3″-[(5′″-Chloroisoxazole-3′″-carbonyl)amino]-2″-oxo-2″H-pyridin-1″-yl}butyrylamino)-5-(2″″-oxopyrroldin-3″″-yl)pent-2-enoic Acid Cyclopentyl Ester]
- EC50 (HRV-14): 79 nM
- CC50 (H1-HeLa cells; line of HRV-1A): > 10000 nM
- CC50 (H1-HeLa cells; line of HRV-10): > 10000 nM
- CC50 at 2 days ([1]; line of HRV-14): > 10000 nM
- EC50 ([2]; H1-HeLa, HRV-1A): 46 nM
- EC50 [2, 12]: 46 nM
- kinact/KI ([3]; HRV-14): 148000 M⁻¹ s⁻¹

Structure (SMILES): C#CC[C@@H](C(=O)N[C@H](/C=C(\C)C(=O)OCC)C[C@@H]1CCNC1=O)n1cccc(NC(=O)c2cc(C)on2)c1=O [Compound 44, trans-(2′S,3′″″S,4S)-2-Methyl-4-[2′-(3″-{[1′″-(5″″-methylisoxazol-3″″-yl)methanoyl]amino}-2′″-oxo-2′″H-pyridin-1′″-yl)pent-4″-ynoylamino]-5-(2′″″-oxopyrrolidin-3′″″-yl)pent-2-enoic Acid Ethyl Ester]
- EC50 (HRV-14): 1460 nM
- CC50 (H1-HeLa cells; line of HRV-2): > 10000 nM
- CC50 (H1-HeLa cells; line of HRV-10): > 10000 nM
- CC50 (H1-HeLa cells; line of HRV-16): > 10000 nM
- CC50 (H1-HeLa cells; line of HRV-25): > 10000 nM
- CC50 (H1-HeLa cells; line of HRV-39): > 10000 nM
- CC50 at 2 days ([1]; line of HRV-14): > 10000 nM
- EC50 ([2]; H1-HeLa, HRV-2): 1180 nM
- EC50 [2, 12]: 562 nM
- EC50 [2, 7]: 1090 nM
- EC50 [2, 8]: 1220 nM
- EC50 [2, 9]: > 1000 nM
- kinact/KI ([3]; HRV-14): 12500 M⁻¹ s⁻¹

Structure (SMILES): CCOC(=O)/C=C/[C@H](C[C@@H]1CCNC1=O)NC(=O)[C@@H]1CCc2c(Cl)cc(NC(=O)c3cc(C)on3)c(=O)n21 [Compound 39, trans-(3′S,3′″S,4S)-4-({8′-Chloro-6′-[(5″-methylisoxazole-3″-carbonyl)amino]-5′-oxo-1′,2′,3′,5′-tetrahydroindolizine-3′-carbonyl}amino)-5-(2′″-oxopyrrolidin-3′″-yl)-pent-2-enoic Acid Ethyl Ester]
- EC50 (HRV-14): 40 nM
- CC50 (H1-HeLa cells; line of HRV-1A): > 10000 nM
- CC50 (H1-HeLa cells; line of HRV-2): > 10000 nM
- CC50 (H1-HeLa cells; line of HRV-3): > 10000 nM
- CC50 (H1-HeLa cells; line of HRV-9): > 10000 nM
- CC50 (H1-HeLa cells; line of HRV-10): > 10000 nM
- CC50 (H1-HeLa cells; line of HRV-16): > 10000 nM
- CC50 (H1-HeLa cells; line of HRV-25): > 10000 nM
- CC50 (H1-HeLa cells; line of HRV-39): > 10000 nM
- CC50 (H1-HeLa cells; line of HRV-87): > 10000 nM
- CC50 at 2 days ([1]; line of HRV-14): > 10000 nM
- EC50 ([2]; H1-HeLa, HRV-1A): 42 nM
- EC50 ([2]; H1-HeLa, HRV-2): 16 nM
- EC50 [2, 4]: 39 nM
- EC50 [2, 5]: 48 nM
- EC50 [2, 12]: 88 nM
- EC50 [2, 7]: 57 nM
- EC50 [2, 8]: 107 nM
- EC50 [2, 9]: 48 nM
- EC50 [2, 11]: 17 nM
- kinact/KI ([3]; HRV-14): 200000 M⁻¹ s⁻¹

Structure (SMILES): CC[C@@H](C(=O)N[C@H](/C=C/C(=O)OC1CCCCC1)C[C@@H]1CCNC1=O)n1cccc(NC(=O)c2cc(C)on2)c1=O [Compound 60, trans-(2′S,3′″″S,4S)-4-[2′-(3″-{[1′″-(5″″-Methylisoxazol-3″″-yl)methanoyl]amino}-2′″oxo-2′″H-pyridin-1′″-yl)butanoylamino]-5-(2′″″-oxopyrrolidin-3′″″-yl)pent-2-enoic Acid Cyclohexyl Ester]
- EC50 (HRV-14): 173 nM
- CC50 (H1-HeLa cells; HRV-1A): > 10000 nM
- CC50 (H1-HeLa cells; HRV-9): > 10000 nM
- CC50 (H1-HeLa cells; HRV-10): > 10000 nM
- CC50 (H1-HeLa cells; HRV-25): > 10000 nM
- CC50 at 2 days ([1]; HRV-14): > 10000 nM
- EC50 ([2]; H1-HeLa, HRV-1A): 558 nM
- EC50 [2, 5]: 516 nM
- EC50 [2, 12]: 368 nM
- EC50 [2, 8]: 251 nM
- kinact/KI ([3]; HRV-14 3C protease): 23000 M⁻¹ s⁻¹

Structure (SMILES): Cc1cc(C(=O)Nc2cccn([C@@H](Cc3ccc(F)cc3)C(=O)N[C@H](/C=C/C(=O)OC(C)C)C[C@@H]3CCNC3=O)c2=O)no1 [Compound 67, trans-(2′S,3″″″S)-4-[3′-(4″-Fluorophenyl)-2′-(3′″-{[1″″-(5′″″-methylisoxazol-3′″″-yl)methanoyl]amino}-2″″-oxo-2″″H-pyridin-1″″-yl)propanoylamino]-5-(2″″″-oxopyrrolidin-3″″″-yl)pent-2-enoic Acid Isopropyl Ester]
- EC50 (HRV-14): 57 nM
- CC50 (H1-HeLa cells; HRV-3): > 10000 nM
- CC50 (H1-HeLa cells; HRV-9): > 10000 nM
- CC50 (H1-HeLa cells; HRV-13): > 10000 nM
- CC50 (H1-HeLa cells; HRV-16): > 10000 nM
- CC50 (H1-HeLa cells; HRV-39): > 10000 nM
- CC50 (H1-HeLa cells; HRV-78): > 10000 nM
- CC50 at 2 days ([1]; HRV-14): > 10000 nM
- EC50 [2, 4]: 19 nM
- EC50 [2, 5]: 162 nM
- EC50 [2, 6]: 162 nM
- EC50 [2, 7]: 33 nM
- EC50 [2, 9]: 38 nM
- EC50 [2, 10]: 48 nM
- kinact/KI ([3]; HRV-14 3C protease): 462000 M⁻¹ s⁻¹

- EC50 (HRV-14; HRV-14, read-out: EC50): 104 nM
- EC50 ([2]; H1-HeLa, HRV-1A): 1180 nM
- EC50 [2, 12]: 1410 nM
- kinact/KI ([3]; HRV-14): 113000 M⁻¹ s⁻¹
Structure (SMILES): CCOC(=O)/C=C/[C@H](CCC(N)=O)NC(=O)[C@H](Cc1ccccc1)n1cccc(NC(=O)C2SCCS2)c1=O [Compound 10, trans-(2′S,4S)-6-Carbamoyl-4-(2′-{3″-[([1′″,3′″]dithiolane-2′″-carbonyl)amino]-2″-oxo-2″H-pyridin-1″-yl}-3′-phenylpropionylamino)hex-2-enoic Acid Ethyl Ester]
- CC50 (H1-HeLa cells; line of HRV-1A): > 10000 nM
- CC50 (H1-HeLa cells; line of HRV-10): > 10000 nM
- CC50 at 2 days ([1]; line of HRV-14): > 10000 nM
